{"source": "patent US20110190265A1", "about": "“METHODS AND COMPOSITIONS FOR TREATING BACTERIAL INFECTIONS BY INHIBITING QUORUM SENSING” (priority 2008, published 2011)", "key": {"[1]": {"system": "autoinducer production by V. cholerae N16961", "experiment": "microbe, parasite or virus in culture", "details": "Vibrio cholerae, read-out: AI Inhibition IC50, BB170 (ai1−ai2+)"}, "[2]": {"molecular_target": "MTAN activity in V. cholerae N16961 cells (Vibrio cholerae serotype O1, UniProt Q9KPI8)"}, "human MTAP": {"molecular_target": "human MTAP (Homo sapiens, UniProt Q13126)", "sequence (Q13126 whole entry)": "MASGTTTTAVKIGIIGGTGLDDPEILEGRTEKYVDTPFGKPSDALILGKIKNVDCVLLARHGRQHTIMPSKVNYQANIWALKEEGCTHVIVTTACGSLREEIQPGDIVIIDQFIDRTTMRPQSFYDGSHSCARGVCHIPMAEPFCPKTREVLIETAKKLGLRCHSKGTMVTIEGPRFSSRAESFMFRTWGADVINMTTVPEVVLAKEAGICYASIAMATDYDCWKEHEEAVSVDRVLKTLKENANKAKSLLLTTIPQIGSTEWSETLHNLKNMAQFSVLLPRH", "details": "read-out: affinity for purified human MTAP; cited from earlier work"}, "VcMTAN": {"molecular_target": "T1, VcMTAN (Vibrio cholerae serotype O1, UniProt Q9KPI8)", "T1 construct": "residues 1-230 for each monomer of VcMTAN in the asymmetric unit; The largest part of the N-terminal 6-His tag and the last C-terminal residue, 231; made in house; host or cells: E. coli BL21 Star (pBAD-DEST49)", "T1 sequence (Q9KPI8 1-231)": "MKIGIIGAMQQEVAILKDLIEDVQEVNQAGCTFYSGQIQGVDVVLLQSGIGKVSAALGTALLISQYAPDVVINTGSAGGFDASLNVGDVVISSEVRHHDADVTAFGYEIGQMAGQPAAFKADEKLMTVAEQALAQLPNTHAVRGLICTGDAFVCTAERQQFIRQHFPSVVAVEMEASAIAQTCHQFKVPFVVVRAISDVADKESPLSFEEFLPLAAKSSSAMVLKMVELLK", "experiment": "Inhibition of purified MTAN activity (xanthine oxidase-coupled assay)", "format": "biochemical", "details": "ratio of dissociation constants of the inhibitor pair", "protocol": "Inhibition of purified MTAN activity. […] Reactions were monitored for 2 hours at 25° C. on a Cary 300 Bio UV-Vis spectrophotometer. Inhibition constants were obtained by fitting the data to the following expression for competitive inhibition using KaleidaGraph 3.6 (Synergy Software, Reading, Pa.):\nwhere νs′ and νs are steady state rates in the presence, and absence of inhibitor, respectively; Km is the Michaelis constant for substrate MTA which was obtained as described above; [S] and [I] are the concentrations of MTA and inhibitor, respectively. If the concentration of inhibitor is smaller than 10-fold concentration of enzymes, the following correction was then applied:"}, "EcMTAN": {"molecular_target": "EcMTAN (Escherichia coli, UniProt P0AF12)", "sequence (P0AF12 whole entry)": "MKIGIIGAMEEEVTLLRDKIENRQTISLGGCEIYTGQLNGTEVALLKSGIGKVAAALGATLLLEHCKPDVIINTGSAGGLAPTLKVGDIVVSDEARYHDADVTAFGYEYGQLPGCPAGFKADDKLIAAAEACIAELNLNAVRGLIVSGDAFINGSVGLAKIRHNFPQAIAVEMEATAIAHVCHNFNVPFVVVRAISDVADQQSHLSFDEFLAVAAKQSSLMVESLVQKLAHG", "details": "purified EcMTAN; cited from earlier work"}}, "data": [{"smiles": "CCCCSCC1CN(Cc2c[nH]c3c(N)ncnc23)CC1O", "note": "(stereo not shown) [BuT-DADMe-ImmA, 5′-butylthio-(BuT-)DADMe-ImmucillinA]", "values": [{"measurement": "IC50", "setting": "[1]", "result": 1.4, "unit": "nM"}]}, {"smiles": "CCSCC1CN(Cc2c[nH]c3c(N)ncnc23)CC1O", "note": "(stereo not shown) [EtT-DADMe-ImmA, 5′-ethylthio-(EtT-) DADMe-ImmucillinA]", "values": [{"measurement": "IC50", "setting": "[1]", "result": 11, "unit": "nM"}]}, {"smiles": "CSCC1CN(Cc2c[nH]c3c(N)ncnc23)CC1O", "note": "(stereo not shown) [MT-DADMe-ImmA, 5′-methylthio-(MT-) DADMe-ImmucillinA]", "values": [{"measurement": "increase of cellular IC50 above Ki* (diffusion barrier)", "setting": "[2]", "result": "~500", "unit": "fold"}, {"measurement": "IC50", "setting": "[1]", "result": 0.94, "unit": "nM"}, {"measurement": "Kd", "setting": "human MTAP", "result": 0.086, "unit": "nM"}]}, {"smiles": "CSC[C@H]1N[C@@H](c2c[nH]c3c(N)ncnc23)[C@H](O)[C@@H]1O", "note": "[MT-ImmA, 5′-methylthio-ImmucillinA]", "values": [{"measurement": "KImmA/KDADMe-ImmA", "setting": "VcMTAN", "result": 135}]}, {"smiles": "Nc1ncnc2c(CN3CC(O)C(CSc4ccc(Cl)cc4)C3)c[nH]c12", "note": "(stereo not shown) [para-chloro-phenylthio-DADMe-ImmA]", "values": [{"measurement": "Km/Ki", "setting": "EcMTAN", "result": "~10^8"}]}]}
